In the NIST ThermoML archive (doi:10.1021/je800889y):

Experiment: excess molar enthalpy (molar enthalpy of mixing); xn = mol fraction of the nth substance listed
Details: 101.3 kPa, Liquid, Flow calorimetry

CCOC(=O)CC(C)=O [ethyl 3-oxobutanoate] + CCC(C)O
excess molar enthalpy [kJ/mol]
Details | 298.15 K | 313.15 K | 328.15 K | 338.15 K | 348.15 K
x1 = 0.1002 | 0.98 | 1.13 | 1.2 | 1.23 | 1.23
x1 = 0.1997 | – | 1.76 | 1.94 | 1.97 | 1.98
x1 = 0.2008 | 1.52 | – | – | – | –
x1 = 0.2998 | – | 2.16 | 2.38 | 2.44 | 2.44
x1 = 0.3009 | 1.84 | – | – | – | –
x1 = 0.3999 | – | 2.38 | 2.61 | 2.67 | 2.67
x1 = 0.4011 | 2.02 | – | – | – | –
x1 = 0.45 | – | 2.44 | 2.64 | 2.7 | 2.71
x1 = 0.4512 | 2.06 | – | – | – | –
x1 = 0.5004 | – | 2.44 | 2.63 | 2.68 | 2.69
x1 = 0.5017 | 2.08 | – | – | – | –
x1 = 0.5499 | – | 2.41 | 2.58 | 2.61 | 2.62
x1 = 0.5512 | 2.06 | – | – | – | –
x1 = 0.5995 | – | 2.32 | 2.48 | 2.5 | 2.51
x1 = 0.6009 | 2.01 | – | – | – | –
x1 = 0.6493 | – | 2.21 | 2.33 | 2.33 | 2.34
x1 = 0.6507 | 1.93 | – | – | – | –
x1 = 0.7007 | 1.8 | 2.03 | 2.12 | 2.12 | 2.12
x1 = 0.8005 | 1.42 | 1.55 | 1.59 | 1.59 | 1.6
x1 = 0.8999 | 0.805 | 0.872 | 0.882 | 0.885 | 0.889

CCOC(=O)CC(C)=O [ethyl 3-oxobutanoate] + CCCCCO
excess molar enthalpy [kJ/mol]
Details | 298.15 K | 313.15 K | 328.15 K | 338.15 K | 348.15 K
x1 = 0.0998 | 0.913 | 1.05 | 1.12 | 1.18 | 1.18
x1 = 0.1996 | 1.38 | 1.67 | 1.85 | 1.92 | 1.93
x1 = 0.3006 | 1.71 | 2.05 | 2.3 | 2.39 | 2.39
x1 = 0.3505 | 1.81 | 2.18 | 2.46 | 2.54 | 2.54
x1 = 0.4001 | 1.88 | 2.27 | 2.54 | 2.63 | 2.64
x1 = 0.4504 | 1.93 | 2.32 | 2.6 | 2.68 | 2.69
x1 = 0.5003 | 1.95 | 2.33 | 2.6 | 2.68 | 2.69
x1 = 0.5498 | 1.94 | 2.31 | 2.56 | 2.63 | 2.64
x1 = 0.6 | 1.9 | 2.26 | 2.49 | 2.54 | 2.55
x1 = 0.6497 | 1.84 | 2.16 | 2.35 | 2.4 | 2.4
x1 = 0.7002 | 1.74 | 2.02 | 2.18 | 2.2 | 2.21
x1 = 0.7995 | 1.43 | 1.59 | 1.67 | 1.67 | 1.67
x1 = 0.9004 | 0.851 | 0.898 | 0.928 | 0.93 | 0.933

CCOC(=O)CC(C)=O [ethyl 3-oxobutanoate] + CCCCO
excess molar enthalpy [kJ/mol]
Details | 298.15 K | 313.15 K | 328.15 K | 338.15 K | 348.15 K
x1 = 0.1003 | 0.913 | 1 | 1.12 | 1.14 | 1.16
x1 = 0.2002 | 1.41 | 1.56 | 1.81 | 1.86 | 1.9
x1 = 0.3 | 1.71 | 1.94 | 2.25 | 2.31 | 2.35
x1 = 0.3502 | 1.81 | 2.07 | 2.38 | 2.45 | 2.49
x1 = 0.3999 | 1.88 | 2.15 | 2.47 | 2.53 | 2.58
x1 = 0.45 | 1.92 | 2.22 | 2.51 | 2.58 | 2.61
x1 = 0.5005 | 1.94 | 2.22 | 2.51 | 2.56 | 2.59
x1 = 0.5501 | 1.92 | 2.19 | 2.47 | 2.51 | 2.53
x1 = 0.5999 | 1.88 | 2.12 | 2.37 | 2.42 | 2.42
x1 = 0.6499 | 1.8 | 2.02 | 2.25 | 2.27 | 2.27
x1 = 0.7 | 1.69 | 1.86 | 2.06 | 2.08 | 2.08
x1 = 0.8005 | 1.34 | 1.42 | 1.55 | 1.55 | 1.56
x1 = 0.9007 | 0.767 | 0.799 | 0.841 | 0.842 | 0.847

CCOC(=O)CC(C)=O [ethyl 3-oxobutanoate] + CCOC(C)=O
excess molar enthalpy [kJ/mol]
Details | 298.15 K | 313.15 K | 328.15 K | 338.15 K | 348.15 K
x1 = 0.1005 | 0.025 | 0.025 | 0.021 | 0.019 | 0.017
x1 = 0.1995 | 0.041 | 0.042 | 0.035 | 0.033 | 0.029
x1 = 0.2996 | 0.052 | 0.053 | 0.044 | 0.041 | 0.036
x1 = 0.3495 | 0.054 | 0.057 | 0.047 | 0.044 | 0.039
x1 = 0.3995 | 0.056 | 0.059 | 0.048 | 0.046 | 0.041
x1 = 0.4496 | 0.057 | 0.061 | 0.049 | 0.047 | 0.042
x1 = 0.4998 | 0.056 | 0.061 | 0.048 | 0.046 | 0.042
x1 = 0.55 | 0.055 | 0.06 | 0.047 | 0.045 | 0.041
x1 = 0.6001 | 0.052 | 0.058 | 0.044 | 0.043 | 0.039
x1 = 0.6502 | 0.049 | 0.056 | 0.041 | 0.041 | 0.038
x1 = 0.7001 | 0.046 | 0.052 | 0.037 | 0.037 | 0.035
x1 = 0.7994 | 0.035 | 0.042 | 0.027 | 0.029 | 0.027
x1 = 0.9004 | 0.019 | 0.028 | 0.018 | 0.017 | 0.017

CCOC(=O)CC(C)=O [ethyl 3-oxobutanoate] + O
excess molar enthalpy [kJ/mol]
Details | 298.15 K | 313.15 K | 328.15 K | 338.15 K | 348.15 K
x1 = 0.1502 | 0.175 | 0.276 | 0.386 | 0.472 | 0.558
x1 = 0.2994 | 0.428 | 0.597 | 0.783 | 0.929 | 1.09
x1 = 0.4491 | 0.684 | 0.92 | 1.19 | 1.4 | 1.62
x1 = 0.6014 | 0.923 | 1.23 | 1.57 | 1.82 | 1.93
x1 = 0.6499 | – | – | – | 1.79 | 1.89
x1 = 0.7001 | 1.08 | 1.4 | 1.58 | 1.7 | 1.79
x1 = 0.7514 | 1.13 | 1.32 | 1.47 | 1.56 | 1.61
x1 = 0.797 | – | – | – | 1.38 | 1.41
x1 = 0.8474 | 0.87 | 0.998 | 1.07 | – | –
x1 = 0.9034 | 0.6 | 0.696 | 0.736 | 0.778 | 0.786
x1 = 0.9496 | 0.32 | 0.385 | 0.39 | – | –
